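Cells were grown in 96-well plates and exposed to each compound for 48 hours at five concentrations; endpoints were interpolated linearly between bracketing concentrations, or set to the highest concentration if not reached. GI50 = concentration required for 50% inhibition of growth. At the TGI there is no net growth.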
Tests used:
Assay in all cases: NCI-60 cell line screen, 48 h
[1] = system: HOP-92 NSCLC
[2] = system: MDA-MB-435
[3] = system: MOLT-4 leukemia
[4] = system: K-562 leukemia
[5] = system: OVCAR-4 ovarian
[6] = system: HCT-116 colon
[7] = system: CAKI-1 renal
[8] = system: BT-549 breast
[9] = system: KM12 colon
[10] = system: SF-539 CNS

Row | Structure (SMILES) | TGI [1] | TGI [2] | TGI [3] | TGI [4] | TGI [5] | TGI [6] | TGI [7] | TGI [8] | TGI [9] | TGI [10] | GI50 [1] | GI50 [3] | GI50 [4] | GI50 [6] | GI50 [10] | GI50 [2] | GI50 [5]
1 | CSCCC(NOC(=O)Cc1ccccc1)P(=O)(O)c1ccccc1 (configuration not stated) | > 100 µM | > 100 µM | > 100 µM | > 100 µM | > 100 µM | > 100 µM | > 100 µM | – | – | – | – | – | – | – | – | – | –
2 | COc1c(C(=O)CC2c3c(cc4oc(C)cc(=O)c4c3OC)OC(=N)C2c2nc3ccccc3[nH]2)c(O)c(OC)c2occc12 (configuration not stated) | > 100 µM | > 100 µM | > 100 µM | > 100 µM | > 100 µM | > 100 µM | > 100 µM | > 100 µM | > 100 µM | – | – | – | – | – | – | – | –
3 | O=C(C#Cc1ccccc1)Nc1ccccc1CC(c1c[nH]c2ccccc12)c1c[nH]c2ccccc12 | – | – | 34.2 µM | 36.5 µM | – | – | > 100 µM | – | 44.4 µM | 30.1 µM | – | – | – | – | – | – | –
4 | COc1ccc(/C=N/NC(=O)NCCNCCO)cc1 | > 100 µM | – | > 100 µM | > 100 µM | > 100 µM | > 100 µM | > 100 µM | – | > 100 µM | > 100 µM | – | – | – | – | – | – | –
5 | CCCN1CCN(c2ccc3nc(-c4ccc5nc(-c6ccc(OCC)cc6)[nH]c5c4)[nH]c3c2)CC1 | 28.4 µM | – | 3.42 µM | 1.82 µM | – | – | – | – | – | – | 5.05 µM | 1060 nM | 418 nM | – | – | – | –
6 | N#Cc1ccccc1C#C/C=C\C#Cc1ccccn1 | > 100 µM | 20.4 µM | – | > 100 µM | > 100 µM | 24.3 µM | 83.1 µM | – | 29.6 µM | 45.1 µM | – | – | – | – | – | – | –
7 | O=[N+]([O-])c1cc(-c2ccc([As](=O)(O)O)cc2)ccc1[As](=O)(O)O | > 100 µM | > 100 µM | > 100 µM | > 100 µM | > 100 µM | > 100 µM | > 100 µM | > 100 µM | > 100 µM | – | – | – | – | – | – | – | –
8 | C=C1C(O)C2OC(=O)C(=C)C2C(OC(=O)/C(C)=C/C)CC2(C)OC2C2OC12 (configuration not stated) | 65.4 µM | > 100 µM | 31.2 µM | – | > 100 µM | > 100 µM | 26.9 µM | 27.2 µM | 11.6 µM | > 100 µM | – | – | – | – | – | – | –
9 | C#CCn1c(=O)c2cc(OC)c(OC)cc2n(CC#C)c1=O | > 10 µM | > 10 µM | > 10 µM | > 10 µM | > 10 µM | > 10 µM | > 10 µM | – | > 10 µM | > 10 µM | – | – | – | – | – | – | –
10 | CCc1cc2c(cc1O)CC[C@@H]1[C@@H]2CC[C@]2(C)[C@@H](O)CC[C@@H]12 | – | 4.99 µM | 20 µM | 14.5 µM | 27.3 µM | 13.4 µM | 20.8 µM | – | 17.4 µM | 9.5 µM | – | – | – | 3.52 µM | 3.27 µM | – | –
11 | CN(C)CCNC(=O)c1cccc2c(NC(CCCN=C(N)N)C(=O)O)c3ccccc3nc12 (configuration not stated) | 51.1 µM | 41.6 µM | > 100 µM | > 100 µM | 27.7 µM | 67.8 µM | – | – | 61.5 µM | – | – | – | – | – | – | – | –
12 | O=C(N/N=C/c1ccc(O)cc1)NNCCO | – | > 100 µM | > 100 µM | > 100 µM | – | > 100 µM | > 100 µM | > 100 µM | > 100 µM | > 100 µM | – | – | – | – | – | – | –
13 | COC(=O)c1cc(NC(=O)Cn2c3ccccc3c3ccccc32)cn1C | – | > 100 µM | > 100 µM | > 100 µM | 74.9 µM | > 100 µM | > 100 µM | 71.3 µM | > 100 µM | 63.1 µM | – | – | – | – | – | – | –
14 | CCN(CC)CCNC(=O)C1COc2ccc(-c3cc(=O)c4ccccc4o3)cc2O1 (configuration not stated) | 53.9 µM | – | 57.9 µM | 49 µM | 35.8 µM | 32.7 µM | 43.3 µM | – | 35.4 µM | 30 µM | – | – | – | – | – | – | –
15 | CCC(/C(=N/NC(=O)C[N+](C)(C)C)c1ccccc1)C1OC(=O)c2ccccc21 (configuration not stated) | > 100 µM | – | > 100 µM | > 100 µM | > 100 µM | > 100 µM | > 100 µM | – | > 100 µM | > 100 µM | – | – | – | – | – | – | –
16 | CCCC(CCC(=O)O)(CCC(=O)O)[N+](=O)[O-] | > 100 µM | > 100 µM | > 100 µM | > 100 µM | – | > 100 µM | > 100 µM | > 100 µM | > 100 µM | > 100 µM | – | – | – | – | – | – | –
17 | N#Cc1cc([N+](=O)[O-])ccc1NC(=O)C(=O)Nn1c(=S)[nH]c2ccccc2c1=O | > 100 µM | – | – | > 100 µM | > 100 µM | > 100 µM | > 100 µM | – | > 100 µM | > 100 µM | – | – | – | – | – | – | –
18 | Clc1ccc(CCNCCNC2(c3cc4ccccc4s3)CCCCC2)cc1Cl | 3.15 µM | 3.83 µM | 4.53 µM | 4.52 µM | 3.17 µM | 3.26 µM | 3.42 µM | 3.44 µM | 3.1 µM | – | – | – | – | – | – | – | –
19 | CNC(=O)/C(C#N)=C(\N)N1CCCC1 | – | > 100 µM | > 100 µM | > 100 µM | – | > 100 µM | > 100 µM | – | > 100 µM | > 100 µM | – | – | – | – | – | – | –
20 | Cc1nc2cc3[nH]c4ccccc4c(=O)c3cc2s1 | > 100 µM | – | > 100 µM | > 100 µM | > 100 µM | > 100 µM | > 100 µM | – | > 100 µM | > 100 µM | – | – | – | – | – | – | –
21 | CCOC(=O)C(NS(=O)(=O)c1ccccc1)(C(F)(F)F)P(=O)(OCC(C)C)OCC(C)C (configuration not stated) | > 100 µM | > 100 µM | > 100 µM | > 100 µM | > 100 µM | > 100 µM | > 100 µM | – | > 100 µM | > 100 µM | – | – | – | – | – | – | –
22 | CC(=O)OC1CC[C@@]2(C)C(=CC[C@@H]3[C@@H]2CC[C@]2(C)Nc4c(cnn4-c4ccc(F)cc4)C[C@@H]32)C1 (some centres not stated) | > 100 µM | > 100 µM | – | > 100 µM | > 100 µM | > 50.5 µM | 42.8 µM | > 100 µM | > 84.1 µM | 17.2 µM | – | – | – | – | – | – | –
23 | Nc1nc2c(nnn2C2C=C(CO)C(O)C2O)c(=O)[nH]1 (configuration not stated) | > 100 µM | – | > 100 µM | > 100 µM | > 100 µM | > 100 µM | > 100 µM | – | > 100 µM | > 100 µM | – | – | – | – | – | – | –
24 | CCN1CC2(CO)CCC(OC)C34C5CC6C(OC)CC(O)(C5C6OC)C(O)(C(OC)C23)C14 (configuration not stated) | > 375 µM | – | > 375 µM | > 375 µM | > 375 µM | > 375 µM | > 375 µM | – | > 375 µM | > 375 µM | – | – | – | – | – | – | –
25 | COc1ccc(CNCCN2C(=O)c3ccc4c5c(ccc(c35)C2=O)C(=O)N(CCNCc2ccc(OC)c(OC)c2OC)C4=O)c(OC)c1OC | 3.44 µM | 0.801 µM | 0.613 µM | – | 0.146 µM | – | – | – | – | – | 1.56 µM | 151 nM | – | – | – | 250 nM | 76.2 nM

From PubChem BioAssay (NCI)
